# Reference: patent publication US10953027B2, “Active agents and methods of their use for the treatment of metabolic disorders and nonalcoholic fatty liver disease” (Flagship Pioneering Innovations V, Inc., priority 2018, dated 2021)
# Experiment: Assay 1. Stability in Simulated Gastric Fluid (SGF)
# Assay type: in vitro ADME
# Details: 1 μM, 37° C., SGF pH 1.6 with pepsin
# Description: Assay 1. Stability of acylated active agents in Simulated Gastric Fluid (SGF). This assay was used to assess the stability of an acylated active agent in a stomach.
# Medium was prepared by dissolving 2 g of sodium chloride in 0.6 L of ultrapure water (MilliQ®, Millipore Sigma, Darmstadt, Germany). The pH was adjusted to 1.6 with 1N hydrochloric acid, and the volume was then adjusted to 1 L with purified water.
# 60 mg FaSSIF powder (Biorelevant™, London, UK) were dissolved in 500 mL buffer (above). Pepsin was added (0.1 mg/mL) (Millipore Sigma, Darmstadt, Germany), and the solution was stirred. The resulting SGF media were used fresh for each experiment.
# Test compounds were dissolved in DMSO stock to 1 mM. An aliquot of the DMSO stock solution was removed and diluted in the SGF Media in 15 mL falcon tubes to generate a compound concentration of 1 μM. A 1 mL aliquot was immediately removed and diluted once with 1 volume of acetonitrile for T0 timepoint. The mixture was sealed and mixed at 37° C. in an incubator. Aliquots (1 mL) were removed at regular intervals and immediately quenched by the addition of 1 volume of acetonitrile. The resulting samples were analyzed by LC/MS to determine degradation rates in SGF.
row,SMILES,Assay 1 (SGF) (% Remaining @ 1 hours)
1,"C[C@@H]1CCOC(C(=O)Oc2ccc(/C=C/c3cc(OC(=O)C4OCC[C@@H](C)O4)cc(OC(=O)C4OCC[C@@H](C)O4)c3)cc2)O1 (stereo partly drawn) [Compound 258, 3-[(4R)-4-methyl-1,3-dioxane-2-carbonyloxy]-5-[(1E)-2-{4-[(4R)-4-methyl-1,3-dioxane-2-carbonyloxy]phenyl}ethenyl]phenyl (4R)-4-methyl-1,3-dioxane-2-carboxylate]",A (A: <25% of the tested compound remaining)
2,"CC(=O)Oc1cc(OC(C)=O)c2c(=O)c(OC(C)=O)c(-c3cc(OC(C)=O)c(OC(C)=O)c(OC(C)=O)c3)oc2c1 [Compound 23, [3,5-diacetoxy-4-oxo-2-(3,4,5-triacetoxyphenyl)chromen-7-yl] acetate]",C (C: >75% of the tested compound remaining)
3,"CC(=O)OC[C@H]1O[C@@H](Oc2c(C)c(C)c3c(c2C)CC[C@@](C)(CCC[C@H](C)CCC[C@H](C)CCCC(C)C)O3)[C@H](OC(C)=O)[C@@H](OC(C)=O)[C@@H]1OC(C)=O [Compound 63, [(2R,3R,4S,5R,6S)-3,4,5-triacetoxy-6-[(2R)-2,5,7,8-tetramethyl-2-[(4R,8R)-4,8,12-trimethyltridecyl]chroman-6-yl]oxy-tetrahydropyran-2-yl]methyl Acetate]",C (C: >75% of the tested compound remaining)
4,"CCC(=O)OC1OC[C@@H](OC(=O)CC)[C@H](OC(=O)CC)[C@H]1OC(=O)CC (stereo partly drawn) [Compound 162, (3R,4S,5R)-3,4,5-tris(propanoyloxy)oxan-2-yl Propanoate]",C (C: >75% of the tested compound remaining)
5,"CCCC(=O)Oc1cc(OC(=O)CCC)c2c(=O)cc(-c3ccc(OC(=O)CCC)c(OC(=O)CCC)c3)oc2c1 [Compound 202, 2-[3,4-bis(butanoyloxy)phenyl]-5-(butanoyloxy)-4-oxo-4H-chromen-7-yl Butanoate]",C (C: >75% of the tested compound remaining)
6,"C[C@@H]1CCO[C@H](C(=O)Oc2ccc(/C=C/c3cc(O)cc(OC(=O)[C@H]4OCC[C@@H](C)O4)c3)cc2)O1 [Compound 256, 4-[(1E)-2-{3-hydroxy-5-[(2S,4R)-4-methyl-1,3-dioxane-2-carbonyloxy]phenyl}ethenyl]phenyl (2S,4R)-4-methyl-1,3-dioxane-2-carboxylate]",A (A: <25% of the tested compound remaining)
7,"CCC(=O)O[C@@H]1OC[C@H](OC(=O)CC)[C@H](OC(=O)CC)[C@H]1OC(=O)CC [Compound 160, (2S,3R,4S,5S)-3,4,5-tris(propanoyloxy)oxan-2-yl Propanoate]",C (C: >75% of the tested compound remaining)
8,"CCCC(=O)OCC1(OC(=O)CCC)OC[C@@H](OC(=O)CCC)[C@H](OC(=O)CCC)[C@@H]1OC(=O)CCC (stereo partly drawn) [Compound 163, [(3S,4S,5R)-2,3,4,5-tetrakis(butanoyloxy)oxan-2-yl]methyl Butanoate]",C (C: >75% of the tested compound remaining)
9,"CCCCCCCC(=O)Oc1ccc(/C=C/c2cc(OC(=O)CCCCCCC)cc(OC(=O)CCCCCCC)c2)cc1 [Compound 11, [4-[(E)-2-[3,5-di(octanoyloxy)phenyl]vinyl]phenyl] octanoate]",C (C: >75% of the tested compound remaining)
10,"CCC(=O)O[C@H]1[C@H](OC(=O)CC)[C@H](OC(=O)/C=C/c2c[nH]c3ccccc23)O[C@@H](C)[C@H]1OC(=O)CC [Compound 148, (2S,3S,4R,5R,6S)-6-methyl-3,4,5-tris(propanoyloxy)oxan-2-yl (2E)-3-(1H-indol-3-yl)prop-2-enoate]",C (C: >75% of the tested compound remaining)
11,"CCCCCCCCCC(=O)Oc1ccc(/C=C/c2cc(OC(=O)CCCCCCCCC)cc(OC(=O)CCCCCCCCC)c2)cc1 [Compound 12, [4-[(E)-2-[3,5-di(decanoyloxy)phenyl]vinyl]phenyl] decanoate]",C (C: >75% of the tested compound remaining)
12,"CCC(=O)O[C@@H]1[C@@H](OC(=O)CC)[C@@H](OC(=O)CCc2c[nH]c3ccccc23)OC[C@H]1OC(=O)CC [Compound 108, (2R,3R,4S,5R)-3,4,5-tris(propanoyloxy)oxan-2-yl 3-(1H-indol-3-yl)propanoate]",C (C: >75% of the tested compound remaining)

# Experiment: Assay 2. Stability in Simulated Intestinal Fluid (SIF)
# Assay type: in vitro ADME
# Details: 1 μM, 37° C., SIF pH 6.7 with pancreatin
# Description: Assay 2. Stability of acylated active agents in Simulated Intestinal Fluid (SIF). This assay was used to assess the stability of an acylated active agent in a small intestine.
# Phosphate buffer was prepared by dissolving 0.42 g of sodium hydroxide pellets and 3.95 g of monobasic sodium phosphate monohydrate and 6.19 g of sodium chloride in ultrapure water (MilliQ®, Millipore Sigma, Darmstadt, Germany). The pH was adjusted to 6.7 using aq. HCl and aq. NaOH, as necessary, and the solution was diluted with ultrapure water to produce 1 L of the pH 6.7 buffer.
# 112 mg FaSSIF powder (Biorelevant™, London, UK) was dissolved in 50 mL of the pH 6.7 buffer. 2 to 3 mL of the resulting solution were then added to 500 mg pancreatin (Millipore Sigma, Darmstadt, Germany). The resulting mixture was agitated by finger tapping the vessel containing the mixture until milky suspension formed. At this time, the remainder of the 50 mL FaSSiF/pH 6.7 buffer solution was added. The resulting suspension was flipped upside down 10 times to produce SIF, which was used fresh.
# Test compounds were dissolved in DMSO stock to 1 mM. An aliquot of the DMSO stock solution was removed and diluted in the SIF media in 15 mL falcon tubes to produce a mixture with a tested compound concentration of 1 μM. A 1 mL aliquot was immediately removed and diluted once with 1 volume of acetonitrile for T0 timepoint. The mixture was sealed and agitated at 37° C. in an incubator. Aliquots (1 mL) were removed at regular intervals and immediately quenched by the addition of 1 volume of acetonitrile. The resulting samples were analyzed by LC/MS to determine degradation rates.
row,SMILES,Assay 2 (SIF) (% @ Remaining 4 hours)
1,"CC(=O)Oc1cc(OC(C)=O)c2c(=O)c(OC(C)=O)c(-c3cc(OC(C)=O)c(OC(C)=O)c(OC(C)=O)c3)oc2c1 [Compound 23, [3,5-diacetoxy-4-oxo-2-(3,4,5-triacetoxyphenyl)chromen-7-yl] acetate]",A (A: <25% of the tested compound remaining)
2,"CC(=O)OC[C@H]1O[C@@H](Oc2c(C)c(C)c3c(c2C)CC[C@@](C)(CCC[C@H](C)CCC[C@H](C)CCCC(C)C)O3)[C@H](OC(C)=O)[C@@H](OC(C)=O)[C@@H]1OC(C)=O [Compound 63, [(2R,3R,4S,5R,6S)-3,4,5-triacetoxy-6-[(2R)-2,5,7,8-tetramethyl-2-[(4R,8R)-4,8,12-trimethyltridecyl]chroman-6-yl]oxy-tetrahydropyran-2-yl]methyl Acetate]",C (C: >75% of the tested compound remaining)
3,"CCC(=O)OC1OC[C@@H](OC(=O)CC)[C@H](OC(=O)CC)[C@H]1OC(=O)CC (stereo partly drawn) [Compound 162, (3R,4S,5R)-3,4,5-tris(propanoyloxy)oxan-2-yl Propanoate]",A (A: <25% of the tested compound remaining)
4,"CCCC(=O)O[C@@H]1O[C@@H](C)[C@H](OC(=O)CCC)[C@@H](OC(=O)CCC)[C@H]1OC(=O)CCC [Compound 152, (2S,3R,4R,5S,6S)-3,4,5-tris(butanoyloxy)-6-methyloxan-2-yl Butanoate]",A (A: <25% of the tested compound remaining)
5,"CCCC(=O)Nc1ccc(O[C@@H]2OC[C@@H](OC(=O)CCC)[C@H](OC(=O)CCC)[C@H]2OC(=O)CCC)c(C(=O)O)c1 [Compound 229, 5-butanamido-2-{[(2S,3R,4S,5R)-3,4,5-tris(butanoyloxy)oxan-2-yl]oxy}benzoic Acid]",A (A: <25% of the tested compound remaining)
6,"CCCC(=O)Oc1cc(OC(=O)CCC)c2c(=O)cc(-c3ccc(OC(=O)CCC)c(OC(=O)CCC)c3)oc2c1 [Compound 202, 2-[3,4-bis(butanoyloxy)phenyl]-5-(butanoyloxy)-4-oxo-4H-chromen-7-yl Butanoate]",A (A: <25% of the tested compound remaining)
7,"O=C(CCCc1ccccc1)Oc1ccc(/C=C/c2cc(OC(=O)CCCc3ccccc3)cc(OC(=O)CCCc3ccccc3)c2)cc1 [Compound 2, [4-[(E)-2-[3,5-bis(4-phenylbutanoyloxy)phenyl]vinyl]phenyl] 4-phenylbutanoate]",C (C: >75% of the tested compound remaining)
8,"CCCC(=O)O[C@H]1O[C@@H](C)[C@H](OC(=O)CCC)[C@@H](OC(=O)CCC)[C@H]1OC(=O)CCC [Compound 151, (2R,3R,4R,5S,6S)-3,4,5-tris(butanoyloxy)-6-methyloxan-2-yl Butanoate]",A (A: <25% of the tested compound remaining)
9,"CCCC(=O)O[C@H]1OC[C@@H](OC(=O)CCC)[C@H](OC(=O)CCC)[C@H]1OC(=O)CCC [Compound 191, (2R,3R,4S,5R)-3,4,5-tris(butanoyloxy)oxan-2-yl Butanoate]",C (C: >75% of the tested compound remaining)
10,"C[C@@H]1O[C@@H](OC(=O)Cc2c[nH]c3ccccc23)[C@H](OC(=O)Cc2c[nH]c3ccccc23)[C@H](OC(=O)Cc2c[nH]c3ccccc23)[C@H]1OC(=O)Cc1c[nH]c2ccccc12 [Compound 154, (2S,3R,4R,5S,6S)-3,4,5-tris({[2-(1H-indol-3-yl)acetyl]oxy})-6-methyloxan-2-yl 2-(1H-indol-3-yl)acetate]",A (A: <25% of the tested compound remaining)
11,"O=C(Cc1c[nH]c2ccccc12)O[C@@H]1OC[C@@H](OC(=O)Cc2c[nH]c3ccccc23)[C@@H](OC(=O)Cc2c[nH]c3ccccc23)[C@H]1OC(=O)Cc1c[nH]c2ccccc12 [Compound 172, (2S,3R,4R,5R)-3,4,5-tris({[2-(1H-indol-3-yl)acetyl]oxy})oxan-2-yl 2-(1H-indol-3-yl)acetate]",C (C: >75% of the tested compound remaining)
12,"CCCC(=O)O[C@@H]1[C@@H](OC(=O)CCC)[C@@H](Oc2ccc(N)cc2C(=O)O)OC[C@@H]1OC(=O)CCC [Compound 42, 5-amino-2-[(2R,3R,4S,5S)-3,4,5-tri(butanoyloxy)tetrahydropyran-2-yl]oxy-benzoic Acid]",C (C: >75% of the tested compound remaining)
13,"C[C@@H]1O[C@H](OC(=O)Cc2c[nH]c3ccccc23)[C@H](OC(=O)Cc2c[nH]c3ccccc23)[C@H](OC(=O)Cc2c[nH]c3ccccc23)[C@H]1OC(=O)Cc1c[nH]c2ccccc12 [Compound 153, (2R,3R,4R,5S,6S)-3,4,5-tris({[2-(1H-indol-3-yl)acetyl]oxy})-6-methyloxan-2-yl 2-(1H-indol-3-yl)acetate]",A (A: <25% of the tested compound remaining)
14,"CCCC(=O)O[C@@H]1[C@@H](OC(=O)CCC)[C@@H](Oc2ccc(N)cc2C(=O)O)OC[C@H]1OC(=O)CCC [Compound 204, 5-amino-2-[(2R,3R,4S,5R)-3,4,5-tri(butanoyloxy)tetrahydropyran-2-yl]oxy-benzoic Acid]",B (B: 25-75% of the tested compound remaining)
